Test results as given in the OPERA property sets (Mansouri et al. 2018).

Conditions: not given

Compound	boiling point [°C]	melting point [°C]	log10 Henry constant (atm·m³/mol)	log10 vapour pressure (mmHg)	log10 Koc (L/kg)	ready biodegradability	log10 Koa	log10 biodegradation half-life (days)
CC(C)CC(=O)OCC(COC(=O)CC(C)C)OC(=O)CC(C)C	332							
OCCCc1ccccn1	260	34						
CCc1c(CC)c(CC)c(CC)c(CC)c1CC	298	129						
CCCS(=O)(=O)O		7.5						
O=C(CC(=O)C(F)(F)F)C(F)(F)F	70							
Clc1ccc(-c2c(Cl)c(Cl)cc(Cl)c2Cl)c(Cl)c1			-4.29					
CC1(C)C2C=C[C@]1(C)CC2	146	113						
C[Si](F)(F)c1ccccc1				0.881				
CCCC(C)=C(CC)C(C)=O	190							
Cc1cccc(NC(=O)c2ccccc2C(=O)O)c1		150						
CCCCCCCCCCCCCC[N+](C)(C)C.[Br-]		248						
COc1ccccc1OC	206	22.5		-0.328	2.03	readily biodegradable		
O=CC(Cl)Cl	89.2			1.74				
COc1ccc(OC)c([N+](=O)[O-])c1		72.5						
CC1=CCOCC1	118							
CC1(C)C(C=C(Cl)Cl)C1C(=O)OCc1cccc(Oc2ccccc2)c1 (stereo not given)		34		-7.66	4.8			
C=Cc1ccc(Cl)cc1	192	15.9		-0.0885		not readily biodegradable		
O=C(OOC(=O)c1ccc(Cl)cc1Cl)c1ccc(Cl)cc1Cl		106				not readily biodegradable		
CC(=O)OC[C@]12C[C@H](OC(=O)CC(C)C)C(C)=C[C@H]1O[C@@H]1[C@H](O)[C@@H](OC(C)=O)[C@@]2(C)[C@]12CO2		152						
CCCCCCCCCCCCCCC1CCCCC1	360	24						
CN(C)c1ccc2cc3ccc(N(C)C)cc3nc2c1		165						
O[C@@H]1[C@H]2CC[C@H](C2)[C@@H]1O		139						
O=C(O)CC(O)(CC(=O)O)C(=O)O		153		-7.78		readily biodegradable		
Cc1ccc(O)c(C)c1C	236	81						
CC(Cl)CO (stereo not given)	134			0.72				

Compound	boiling point [°C]	melting point [°C]	log10 Henry constant (atm·m³/mol)	log10 vapour pressure (mmHg)	log10 Koc (L/kg)	ready biodegradability	log10 Koa	log10 biodegradation half-life (days)
Cc1ccc2c(ccc3cc4ccccc4cc32)c1		156						
CC(C)CCC#N	156	-51						
C=C(Cl)c1ccccc1	199	-23						
CCCCCCCCCCCCCCCC(=O)OCCOC(=O)CCCCCCCCCCCCCCC		72						
CCOC(=O)/C=C/C(=O)OCC						readily biodegradable		
CCCCCCCCCCCCCCCCCl	322	17.9		-4.21				
O=C(CN1CCN(Cc2ccc3c(c2)OCO3)CC1)N1c2ccccc2Sc2ccccc21		142						
CCCN=C=S	153							
CC(C)C1=CC(=O)C(C)CC1 (stereo not given)	236							
CC(/C=C/C=C(\C)C(=O)O)=C\C=C\C=C(C)\C=C\C=C(/C)C(=O)O		286						
O=[N+]([O-])Cc1ccccc1	226							
C#CC(C)=CC	66.5							
CCCCCCC(=O)O	222	-7.5		-1.97		readily biodegradable		
CCC1(CC)C(=O)NC(=S)NC1=O		180						
CCCNC(=O)NCCC	255	105						
Nc1cccc(C(=O)O)c1		173				not readily biodegradable		
CCc1cccc(Cl)c1	184	-55						
Nc1ccc(F)cc1F	170	-7.5						
C=CCOCCC	91			1.78				
CC1=CC(=O)C(C(C)C)=CC1=O	232	45.5						
OCC(F)(F)C(F)F	110	-15	-5.2	1.17				
COc1ccc(C(=NCc2ccccc2)c2ccc(OC)cc2)cc1		90						
Oc1c(Cl)cc(Cl)cc1Sc1cc(Cl)cc(Cl)c1O		188						
C[Si](C)(CCl)c1ccccc1	225							
CC(=O)Nc1ccc2c(c1)Cc1cc(F)ccc1-2						not readily biodegradable		

Compound	boiling point [°C]	melting point [°C]	log10 Henry constant (atm·m³/mol)	log10 vapour pressure (mmHg)	log10 Koc (L/kg)	ready biodegradability	log10 Koa	log10 biodegradation half-life (days)
Cc1ccc(C(=O)c2csc(S(N)(=O)=O)c2)cc1		176						
O=C(Cl)c1ccccc1Cl	238	-4						
CC(C)OC(=O)C(Cl)(Cl)Cl	175							
C=CCOC(=O)OCC=C	142			-0.991				
CN1[C@@H]2CC[C@H]1C[C@@H](O)C2	237	86.5						
FC(F)(F)C(F)(F)C(F)(F)I	41.2	-95						
COC(=O)COc1ccccc1	245	245						
Fc1ccccc1	84.7	-42.2	-2.2	1.89				
O=c1[nH]c(=O)n([C@H]2C[C@H](O)[C@@H](CO)O2)cc1I		263						
O=C1CNC(=O)N1		220				readily biodegradable		
CC(=O)OO	110	-0.2	-5.67	1.16				
Cc1ccc2[nH]nnc2c1		81						
CCCCCCCCCCCCCCCCOCCCCCCCCCCCCCCCC		55				not readily biodegradable		
CC[Si](OC)(OC)OC	124							
NC(=O)C[C@H](O)C(=O)O		148						
O=C=Nc1ccc(Cc2ccc(N=C=O)cc2)cc1		38						
O=C(CCCN1CCN(c2ccccn2)CC1)c1ccc(F)cc1		74						
COc1c(F)c(F)cc(F)c1F	138							
O=C(OCC(O)CO)c1ccccc1Nc1ccnc2c(C(F)(F)F)cccc12 (stereo not given)		180						
CC(=O)c1cccc2ccccc12	297	34		-3.41				
CCOC(=O)CN(C(=O)CCl)c1c(CC)cccc1CC		49.5			2			
C=O	-19.1		-6.47			readily biodegradable		
O=C1c2ccccc2C(=O)c2cc(Br)ccc21		206						
CC(=O)c1occc1O		100						
C=C(C)CC(C)(C)C	101	-93.5		1.65				

Compound	boiling point [°C]	melting point [°C]	log10 Henry constant (atm·m³/mol)	log10 vapour pressure (mmHg)	log10 Koc (L/kg)	ready biodegradability	log10 Koa	log10 biodegradation half-life (days)
O=Cc1ccc([N+](=O)[O-])cc1		107						
CCCCCCCCCCCCCCCl	292	4.9		-3.14				
OC(C1=CC(=C(c2ccccn2)c2ccccn2)C=C1)(c1ccccn1)c1ccccn1		147						
OCCCCCCCO	262	22.5						
Oc1ccccc1-c1nc2ccccc2s1		131						
O=CC=CC=Cc1ccccc1		42.5						
Clc1cc2c(c(Cl)c1Cl)Oc1c(cc(Cl)c(Cl)c1Cl)O2		243		-10.3			11	
CC(C)=CCCC(C)O (stereo not given)	175							
Oc1c(Cl)cc(Cl)cc1Cl					3.03	readily biodegradable		
Cc1nc2n(c(=O)c1CCN1CCC(c3noc4cc(F)ccc34)CC1)CCCC2		170						
CC(C)CCC(=O)c1ccoc1	196							
CSc1nnc(C(C)(C)C)c(=O)n1N		126		-6.36	1.71			
Clc1cc(Cl)cc(Oc2ccccc2)c1				-3				
CC(C)=CCC/C(C)=C/C=C/C(C)=C/C=C/C(C)=C/C=C/C=C(C)/C=C/C=C(C)/C=C/C1=C(C)CCCC1(C)C		178						
OCCOc1cccc2ccccc12		45						
Cc1cccc(Cl)c1	162	-47.8		0.565				
N#CCCCOc1ccccc1	288	45.5						
C=C1CC(=O)OC1=O		69						
CC1(C)[C@H](/C=C(\Cl)C(F)(F)F)[C@@H]1C(=O)O[C@H](C#N)c1cccc(Oc2ccccc2)c1				-8.47	5.26			
O=C(O)C(Cl)Br (racemic)	215	31.5						
Cc1cccc2c1Cc1ccccc1-2		85		-3.52				
CCCCSP(=O)(SCCCC)SCCCC			-6.53	-5.28	3.7	readily biodegradable		
COC(CBr)OC	149							
CCCCCCCC/C=C\CCCCCCCC(=O)OCCCC		-26.5						
c1ccc(-c2ncoc2-c2ccccc2)cc1		44						

Compound	boiling point [°C]	melting point [°C]	log10 Henry constant (atm·m³/mol)	log10 vapour pressure (mmHg)	log10 Koc (L/kg)	ready biodegradability	log10 Koa	log10 biodegradation half-life (days)
CCCC(C)(CC)C(C)C (stereo not given)	166							
O=C(O)c1ccoc1		122						
CCc1cccc(CC)c1N	236	3.5		-2.42				
O=C(CCl)c1ccc(Cl)cc1	270	102						
CCOc1cc(Cl)c(N)c(Cl)c1	275	46						
C1CSCCS1	200	112		-0.0969				
COc1cc(OC)nc(N=C(O)NS(=O)(=O)N(C)S(C)(=O)=O)n1		162		-6.78				
c1ccc2c(c1)-c1ccc3ccc4cccc5cc-2c1c3c45	536	164	-6.46		6.2			2.52
CCOC(=O)N(c1ccccc1)c1ccccc1	360	72						
CCCCCCCCCN	202	-1		-0.556				
CCOC(=O)/C=C(C)/C=C/CC(C)CCCC(C)C (stereo not given)				-3.61				
C=C(C)Cl	22.6	-137		2.91				
C1=COCCC1	86	-70						
C#CC(C)Cl (stereo not given)	68.5							
CC(=O)Oc1cccc(O)c1	283							
CC(C)CCCCCOC(=O)C(C)Oc1ccc(Cl)cc1Cl (stereo not given)		-37		-5.47				
CC(C)(C)c1ccc(Br)cc1	232	19						
CCOC(=O)C1=NN(c2ccc(Cl)cc2Cl)C(C)(C(=O)OCC)C1 (stereo not given)		51		-7.33				
c1ccc(Cc2cccc3ccccc23)cc1	350	59.5						
Oc1c(I)cc(Cl)c2cccnc12		178						
COc1ccc(C(=O)c2ccccc2C(=O)O)cc1		146						

Same assay, conditions: fish

Compound	log10 BCF	log10 biotransformation half-life (days)
C=C(C)CC(C)(C)C	2.78	0.12
Clc1cc2c(c(Cl)c1Cl)Oc1c(cc(Cl)c(Cl)c1Cl)O2	3.92	1.3
Oc1c(Cl)cc(Cl)cc1Cl	1.94	-0.57
